Measurements reported in patent publication US9550741B2, “Benzoisothiazole compounds and methods of treating schizophrenia” (SHANGHAI INSTITUTE OF PHARMACEUTICAL INDUSTRY, priority 2013, dated 2017).
Where two headings read alike, the source gives them in different places.

Legend:
D2 receptor = D2 receptor (Homo sapiens (Human), UniProt P14416); assay: Dopamine D2 receptor binding test; conditions: read-out: Affinity of the compound to D2 receptor, Ki value
From the text: This experiment utilizes the plasmid vector containing the gene of D2 receptor protein for transfecting HEK293 cells by calcium phosphate transfection method.
(§1) Beckman LS-6500 multifunction liquid scintillation counter.

[1] = tested on: MK-801-induced schizophrenic mouse model; assay: MK-801-induced schizophrenic mouse model, open-field movement; conditions: for ED50: Mus musculus, po, read-out: ED50, total distance of the open-field movement; for Total distance of the spontaneous movement (cm): 60 min, mean ± SD
[2] = biological target: human recombinant D3 receptor (Homo sapiens (Human), UniProt P35462); assay: Dopamine D3 receptor binding test; conditions: read-out: Affinity of the compound to D3 receptor, Ki value
Chain of human recombinant D3 receptor (P35462 whole entry): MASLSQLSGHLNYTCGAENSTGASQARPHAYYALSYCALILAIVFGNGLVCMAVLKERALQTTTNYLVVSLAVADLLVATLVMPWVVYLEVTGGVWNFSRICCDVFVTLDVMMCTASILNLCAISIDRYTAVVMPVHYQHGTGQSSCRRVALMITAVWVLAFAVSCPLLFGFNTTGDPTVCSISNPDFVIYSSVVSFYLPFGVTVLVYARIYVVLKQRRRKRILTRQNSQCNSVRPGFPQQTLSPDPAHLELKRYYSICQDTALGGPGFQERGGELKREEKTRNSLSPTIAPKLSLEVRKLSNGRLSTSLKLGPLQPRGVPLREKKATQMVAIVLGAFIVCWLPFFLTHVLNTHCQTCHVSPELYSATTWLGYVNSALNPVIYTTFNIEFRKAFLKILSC
Experimental: With [^3H]methyl-spiperone (0.3 nM) as the ligand and (+)-butaclamol (10 LM) for determining non-specific binding, binding tests are carried out on human recombinant D3 receptor (expressed in CHO cells).

[3] = tested on: Salmonella typhimurium TA98 and TA100; assay: Bacterial reverse mutation test (Ames); conditions: TA98 and TA100, with or without S9
in vivo = conditions: mouse
Experimental: Observation of general symptoms: the animals are observed at about 0.5, 1, 2, 4, and 6 hours respectively, after the first administration on the first day, and observed twice a day, one in the morning and one in the afternoon, on the second to the sixth day. Observed objects include but are not limited to general condition, behavior activity, gait and posture, eye, mouth, nose, gastrointestinal tract, skin and hair, and genitourinary tract. • (2) Statistical Analysis
Body weight is expressed in mean±SD. Comparison among groups is carried out with Levene's test and one-way ANOVA, followed by Dunnet t test if there exists a difference.
(1) The acute toxicity of the representative compounds of □, □, □ classes is investigated with the method of Example 81.

[4] = tested on: Apo.-induced schizophrenic mouse model; assay: Apomorphine-induced schizophrenic mouse model, stereotyped behaviors; type: in vivo; conditions: for ED50: Mus musculus, read-out: ED50, inhibition of the total stereotyped behaviors; for Score of stereotyped behaviors: total score in 60 min, mean ± SD
Experimental: The drugs are administered by gastric gavage. The model control group is given the same volume of solvent by gastric gavage.
Total score of the stereotyped behaviors of the mice such as tail erection and wall-climbing in the 60 minutes is calculated.
The clinical response symptoms of the animals shall be recorded during the administration and test procedures.

5-HT2A receptor = 5-HT2A receptor (Homo sapiens (Human), UniProt P28223); assay: 5-HT2A receptor binding test; conditions: read-out: Affinity of the compound to 5-HT2A receptor, Ki value
Chain of 5-HT2A receptor (P28223 whole entry): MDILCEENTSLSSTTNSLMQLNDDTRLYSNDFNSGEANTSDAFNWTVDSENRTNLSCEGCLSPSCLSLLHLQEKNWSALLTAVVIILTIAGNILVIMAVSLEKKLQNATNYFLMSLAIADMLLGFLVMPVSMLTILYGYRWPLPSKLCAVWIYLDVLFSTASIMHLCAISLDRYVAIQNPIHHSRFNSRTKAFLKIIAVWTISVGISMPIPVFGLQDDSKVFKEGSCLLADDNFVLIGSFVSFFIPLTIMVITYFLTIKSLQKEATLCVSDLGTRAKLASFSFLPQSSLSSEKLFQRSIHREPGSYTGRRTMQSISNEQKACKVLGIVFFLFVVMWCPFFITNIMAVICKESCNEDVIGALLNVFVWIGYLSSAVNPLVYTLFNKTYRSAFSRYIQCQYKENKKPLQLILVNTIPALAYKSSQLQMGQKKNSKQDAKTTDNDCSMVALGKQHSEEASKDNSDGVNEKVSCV
From the text: as §1

5-HT1A receptor = 5-HT1A receptor (Homo sapiens (Human), UniProt P08908); assay: 5-HT1A receptor binding test; conditions: read-out: Affinity of the compound to 5-HT1A receptor, Ki value
Chain of 5-HT1A receptor (P08908 whole entry): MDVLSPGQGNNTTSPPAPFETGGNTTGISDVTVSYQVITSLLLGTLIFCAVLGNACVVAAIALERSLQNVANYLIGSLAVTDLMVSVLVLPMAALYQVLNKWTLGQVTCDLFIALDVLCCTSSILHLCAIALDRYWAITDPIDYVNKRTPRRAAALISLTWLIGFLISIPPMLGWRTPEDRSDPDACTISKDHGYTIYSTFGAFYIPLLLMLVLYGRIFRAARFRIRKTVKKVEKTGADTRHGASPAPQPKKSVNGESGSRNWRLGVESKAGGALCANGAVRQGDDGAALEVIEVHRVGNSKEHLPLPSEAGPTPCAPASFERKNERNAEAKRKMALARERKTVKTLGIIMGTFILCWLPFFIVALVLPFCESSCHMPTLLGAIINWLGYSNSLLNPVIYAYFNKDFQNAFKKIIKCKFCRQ
Experimental: Cells: HEK-293 cells stably expressing 5-HT1A receptors as obtained by gene recombination are cultured for 3-5 days in cell culture medium DMEM supplemented with 10% serum.
Competitive inhibition ratio of each compound at the concentration of 10 μmol/L to inhibit the binding of [^3H]8-OH-DPAT to 5-HT1A receptor is determined for primary screening.
The components are mixed to homogeneity, and then the above tubes are transferred to water bath at 30° C. (1 h), removed into ice bath immediately, and suction filtered on Harvest (with ice cold Tris eluate for 5 times).

[5] = [3H]Spiperone, D2 receptor expressed in HEK293 cells
[6] = single oral administration, Apo.-induced model
[7] = [3H]-Ketanserin, 5-HT2A receptor expressed in HEK293 cells
[8] = [3H]methyl-spiperone 0.3 nM, human recombinant D3 receptor in CHO cells
[9] = [3H]8-OH-DPAT, HEK-293 cells expressing 5-HT1A receptors
[10] = single oral administration, ICR mice, read-out: LD50

Chain of D2 receptor (P14416 whole entry): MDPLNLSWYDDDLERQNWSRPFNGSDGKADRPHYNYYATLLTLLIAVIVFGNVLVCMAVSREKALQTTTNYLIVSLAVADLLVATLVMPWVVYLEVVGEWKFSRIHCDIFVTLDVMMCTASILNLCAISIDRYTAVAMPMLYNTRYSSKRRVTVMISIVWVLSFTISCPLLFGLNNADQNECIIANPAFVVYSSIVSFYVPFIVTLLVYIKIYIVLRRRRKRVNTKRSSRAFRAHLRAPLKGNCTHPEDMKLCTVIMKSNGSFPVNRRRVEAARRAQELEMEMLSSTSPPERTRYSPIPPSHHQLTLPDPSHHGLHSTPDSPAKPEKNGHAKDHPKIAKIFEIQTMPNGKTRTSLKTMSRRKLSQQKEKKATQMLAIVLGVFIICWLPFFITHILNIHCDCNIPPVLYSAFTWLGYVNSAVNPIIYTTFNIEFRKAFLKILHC

Compound | Ki (D2 receptor; [5]) | ED50 [1] | Ki [2] | Ames test result (colonies with reverse mutations) [3] | LD50 at 6 days (in vivo; ICR, po) | ED50 [4, 6] | Ki (5-HT2A receptor; [7]) | Ki [2, 8] | Ki (5-HT1A receptor; [9]) | further results
O=C(N[C@H]1CC[C@@H](CCN2CCN(c3nsc4ccccc34)CC2)CC1)c1cc2ccccc2[nH]1 [Compound I-22, cis-N-(4-(2-(4-(benzo[d]isothiazol-3-yl)piperazin-1-yl)ethyl)cyclohexyl)-1H-indolyl-2-carboxamide] | 1.9 nM | 0.062 mg/kg | 0.071 nM | negative | 1530 mg/kg | 0.59 mg/kg | – | – | – | –
CCc1c(C(=O)N[C@H]2CC[C@H](CCN3CCN(c4nsc5ccccc45)CC3)CC2)sc2ccccc12 [Compound I-13, trans-N-(4-(2-(4-(benzo[d]isothiazol-3-yl)piperazin-1-yl)ethyl)cyclohexyl)-3-ethylbenzo[b]thienyl-2-carboxamide] | 1.78 nM | – | – | – | – | – | 4.9 nM | 1.42 nM | 4.07 nM | –
CN(C(=O)N[C@H]1CC[C@H](CCN2CCN(c3nsc4ccccc34)CC2)CC1)c1ccccc1 [IV-6, trans-3-(4-(2-(4-(benzo[d]isothiazol-3-yl)piperazin-1-yl)ethyl)cyclohexyl)-1-methyl-1-phenylurea] | – | 0.084 mg/kg | 0.13 nM | negative | 1390 mg/kg | 0.48 mg/kg | – | – | 4.6 nM | –
O=S(=O)(N[C@H]1CC[C@H](CCN2CCN(c3nsc4ccccc34)CC2)CC1)c1cc2ccccc2o1 [II-5, trans-N-(4-(2-(4-(benzo[d]isothiazol-3-yl)piperazin-1-yl)ethyl)cyclohexyl)benzofuryl-2-sulfamide] | 0.58 nM | 0.088 mg/kg | 0.085 nM | negative | 1100 mg/kg | 0.64 mg/kg | – | – | 10.6 nM | –
O=S(=O)(N[C@H]1CC[C@H](CCN2CCN(c3nsc4ccccc34)CC2)CC1)c1cccs1 [II-1, trans-N-(4-(2-(4-(benzo[d]isothiazol-3-yl)piperazin-1-yl)ethyl)cyclohexyl)thienyl-2-sulfamide] | 0.43 nM | 0.074 mg/kg | – | negative | > 2000 mg/kg | 0.2 mg/kg | – | 0.043 nM | 3.3 nM | –
O=C(N[C@H]1CC[C@H](CCN2CCN(c3nsc4ccccc34)CC2)CC1)c1cc2ccccc2[nH]1 [Compound I-4, trans-N-(4-(2-(4-(benzo[d]isothiazol-3-yl)piperazin-1-yl)ethyl)cyclohexyl)-1H-indolyl-2-carboxamide] | 0.43 nM | 0.073 mg/kg | 0.029 nM | negative | > 2000 mg/kg | 0.37 mg/kg | – | – | – | –
O=C(Nc1ccccc1)N[C@H]1CC[C@H](CCN2CCN(c3nsc4ccccc34)CC2)CC1 [IV-1, trans-1-(4-(2-(4-(benzo[d]isothiazol-3-yl)piperazin-1-yl)ethyl)cyclohexyl)-3-phenylurea] | 1.06 nM | – | – | – | – | – | 0.83 nM | 1.42 nM | 3.65 nM | –
O=C(N[C@H]1CC[C@H](CCN2CCN(c3nsc4ccccc34)CC2)CC1)OCc1ccccc1 [III-11] | – | 0.092 mg/kg | – | negative | – | 0.1 mg/kg | – | – | – | LD50 at 6 days (in vivo; [10]): 1240 mg/kg
O=C(NCc1ccccc1)N[C@H]1CC[C@H](CCN2CCN(c3nsc4ccccc34)CC2)CC1 [IV-11] | – | – | 0.18 nM | negative | – | – | 0.91 nM | – | – | Ki (D2 receptor): 1.4 nM; ED50, total distance of the open-field movement ([1]; single oral administration, MK-801-induced model): 0.060 mg/kg; Ki (5-HT1A receptor): 5.3 nM; ED50, inhibition of the total stereotyped behaviors [4, 6]: 0.53 mg/kg
O=C(N[C@H]1CC[C@H](CCN2CCN(c3nsc4ccccc34)CC2)CC1)c1cc2cc([N+](=O)[O-])ccc2[nH]1 [Compound I-15, trans-N-(4-(2-(4-(benzo[d]isothiazol-3-yl)piperazin-1-yl)ethyl)cyclohexyl)-5-nitro-1H-indolyl-2-carboxamide] | 21.3 nM | – | – | – | – | – | 2.65 nM | 4.03 nM | 8.45 nM | –
COC(=O)N[C@H]1CC[C@@H](CCN2CCN(c3nsc4ccccc34)CC2)CC1 [III-14, cis-(4-(2-(4-(benzo[d]isothiazol-3-yl)piperazin-1-yl)ethyl)cyclohexyl)methylcarbamate] | – | 0.058 mg/kg | – | negative | – | 0.45 mg/kg | – | – | – | LD50 at 6 days (in vivo; [10]): 1080 mg/kg
CC(C)COC(=O)N[C@H]1CC[C@H](CCN2CCN(c3nsc4ccccc34)CC2)CC1 [III-3, trans-N-(4-(2-(4-(benzo[d]isothiazol-3-yl)piperazin-1-yl)ethyl)cyclohexyl)isobutylcarbamate] | – | 0.061 mg/kg | – | negative | – | 0.76 mg/kg | – | – | – | LD50 at 6 days (in vivo; [10]): > 2000 mg/kg
Cc1ccsc1C(=O)N[C@H]1CC[C@H](CCN2CCN(c3nsc4ccccc34)CC2)CC1 [Compound I-11, trans-N-(4-(2-(4-(benzo[d]isothiazol-3-yl)piperazin-1-yl)ethyl)cyclohexyl)-3-methylthienyl-2-carboxamide] | 4.81 nM | – | – | – | – | – | 2.01 nM | 0.37 nM | 2.84 nM | –
O=S(=O)(N[C@H]1CC[C@H](CCN2CCN(c3nsc4ccccc34)CC2)CC1)c1ccc(Cl)o1 [II-8, trans-N-(4-(2-(4-(benzo[d]isothiazol-3-yl)piperazin-1-yl)ethyl)cyclohexyl)-5-chlorofuryl-2-sulfamide] | 10.8 nM | – | – | – | – | – | 1.96 nM | 4.51 nM | 3.96 nM | –
O=C(N[C@H]1CC[C@H](CCN2CCN(c3nsc4ccccc34)CC2)CC1)c1cc2ccccc2s1 [Compound I-6, trans-N-(4-(2-(4-(benzo[d]isothiazol-3-yl)piperazin-1-yl)ethyl)cyclohexyl)benzo[b]thienyl-2-carboxamide] | 1.81 nM | 0.038 mg/kg | 0.035 nM | negative | > 2000 mg/kg | 0.23 mg/kg | – | – | – | Ki (5-HT2A receptor): 0.72 nM; effect on the open-field movement (in words) ([1]; MK-801 mouse model, oral): greater improvement ratio than RGH-188; Total distance of the spontaneous movement (cm) ([1]; single oral administration 0.02 mg/kg): 19482.27 ± 11047.75 cm; Total distance of the spontaneous movement (cm) ([1]; single oral administration 0.03 mg/kg): 17280.33 ± 9364.31 cm; Total distance of the spontaneous movement (cm) ([1]; single oral administration 0.05 mg/kg): 11145.52 ± 6988.56 cm; Total distance of the spontaneous movement (cm) ([1]; single oral administration 0.09 mg/kg): 7796.38 ± 4382.94 cm; effect on stereotyped behaviors (in words) ([4]; apomorphine mouse model, oral): greater improvement ratio than RGH-188; Score of stereotyped behaviors ([4]; single oral administration 0.12 mg/kg): 23.02 ± 8.32; Score of stereotyped behaviors ([4]; single oral administration 0.40 mg/kg): 4.01 ± 3.65; Score of stereotyped behaviors ([4]; single oral administration 0.90 mg/kg): 0.71 ± 0.94
